Patent US4279926A, “Method of relieving pain and treating inflammatory conditions in warm-blooded animals” (priority 1974, dated 1981)
Where a name gives a salt, the structure may show the parent alone.

Key:
Solubility = format: physicochemical
gastro-intestinal mucosa = conditions: in vivo; cited from earlier work
clinical = conditions: human, in vivo, po, Human blood level, single oral dose 500 mg D,L-lysine salt (Table 5) or equivalent 300 mg sodium salt (Table 6), serum, as free acid
Method: The blood levels were then determined after 0.5, 1, 1.5, 2, 3, 4 and 5 hours.

[1] = tested on: carrageenin oedema, inflamed paw; assay: Carrageenin oedema of the rat paw (anti-inflammatory action, paw size/volume); format: in vivo, male Wistar rats; conditions: oral, Tables 1, 2 and 3
[2] = tested on: pain threshold in the inflamed paw (carrageenin oedema); assay: Pain threshold under pressure of the inflamed (carrageenin) rat paw (analgesic action); conditions: for Pain threshold - carrageenin oedema: Table 3
Method: At intervals after the treatment, the size of the treated paw and its sensitivity to pain under pressure were evaluated.

pH of aqueous solution = format: physicochemical

## O=C(O)Cc1ccccc1Oc1ccc(Cl)cc1Cl [Example 6, lysine salt of 2-(2,4-dichlorophenoxy)-phenyl-acetic acid]
Solubility
  Solubility in water: water-soluble

## C=CCOc1ccc(CC(=O)O)cc1Cl [Example 10, arginine salt of 2-(3-chloro-4-allyloxyphenyl)-acetic acid]
Solubility
  Solubility in water: moderately soluble in water

## CC(C(=O)O)c1ccc(C2CCCCC2)cc1 (stereo not drawn) [Example 11, arginine salt of 2-(4-cyclohexyl-phenyl)-propionic acid]
Solubility
  Solubility in water: moderately soluble in water

## CC(=O)Oc1ccccc1C(=O)O [aspirin]
gastro-intestinal mucosa
  Undesired side-effects (gastro-intestinal intolerance, ulceration) compared with phenyl-alkanoic acids: also show these undesired side-effects in an even more pronounced form

## CC(C)Cc1ccc(C(C)C(=O)[O-])cc1.[Na+] (stereo not drawn)
clinical; subject B
  concentration at 0.5 h: 10.5 µg/mL
  concentration at 1 h: 16.6 µg/mL
  concentration at 1.5 h: 11 µg/mL
  concentration at 2 h: 10.3 µg/mL
  concentration at 3 h: 3 µg/mL
  concentration at 4 h: 2.7 µg/mL
  concentration at 5 h: 1.4 µg/mL
clinical; subject C
  concentration at 0.5 h: 3.8 µg/mL
  concentration at 1 h: 4.5 µg/mL
  concentration at 1.5 h: 6 µg/mL
  concentration at 2 h: 8.7 µg/mL
  concentration at 3 h: 8.7 µg/mL
  concentration at 4 h: 9.6 µg/mL
  concentration at 5 h: 4.3 µg/mL
clinical; subject D
  concentration at 0.5 h: 5.5 µg/mL
  concentration at 1 h: 6 µg/mL
  concentration at 1.5 h: 7 µg/mL
  concentration at 2 h: 16.3 µg/mL
  concentration at 3 h: 13.6 µg/mL
  concentration at 4 h: 7.3 µg/mL
  concentration at 5 h: 6.9 µg/mL
clinical; subject E
  concentration at 0.5 h: 3.3 µg/mL
  concentration at 1 h: 9.8 µg/mL
  concentration at 1.5 h: 8.7 µg/mL
  concentration at 2 h: 7.9 µg/mL
  concentration at 3 h: 9.6 µg/mL
  concentration at 4 h: 7 µg/mL
  concentration at 5 h: 5.3 µg/mL
clinical; subject A
  concentration at 2 h: 0.9 µg/mL
  concentration at 3 h: 1.3 µg/mL
  concentration at 4 h: 4.2 µg/mL
  concentration at 5 h: 6.3 µg/mL
clinical; mean
  concentration at 0.5 h: 8.3 µg/mL
  concentration at 1 h: 13.6 µg/mL
  concentration at 1.5 h: 11.6 µg/mL
  concentration at 2 h: 12.7 µg/mL
  concentration at 3 h: 10.8 µg/mL
  concentration at 4 h: 7.8 µg/mL
  concentration at 5 h: 5.4 µg/mL

## CC(C(=O)O)c1cccc(Oc2ccccc2)c1 (stereo not drawn) [Example 12, arginine salt of 2-(3-phenoxy-phenyl)-propionic acid]
Solubility
  Solubility in water: moderately soluble in water

## CC(C)Cc1ccc(C(C)C(=O)O)cc1 (stereo not drawn) [Example 3]
[1]
  Anti-inflammatory and analgesic action compared with free acid and phenyl-butazone: as active as or more active than the equivalent dose of the corresponding free acid and is as effective as a double dose of phenyl-butazone
[2]; i.v., doses of the order of 10 times less, Table 4
  Analgesic action, intravenous, compared with free acid and phenyl-butazone: clearly more active and quicker acting than both the free acid and phenyl-butazone

## CC(C)Cc1ccc(C(C)C(=O)O)cc1 (stereo not drawn) [Example 9]
pH of aqueous solution
  pH of aqueous solution: analogous to those of the product obtained in Example 8
Solubility
  Solubility in water: analogous to those of the product obtained in Example 8

## CC(C)Cc1ccc(C(C)C(=O)O)cc1 (racemic) [Example 8, D,L-arginine salt of 2-(4-isobutylphenyl)-propionic acid]
pH of aqueous solution
  pH of aqueous solution: pH close to neutrality
Solubility
  Solubility in water: moderately soluble in water

## CC(C)Cc1ccc(CC(=O)O)cc1 [Example 4, lysine salt of 2-(4-isobutyl-phenyl)-acetic acid]
Solubility
  Solubility in water: soluble in water

## CC(C)Cc1ccc(C(C)C(=O)O)cc1 (stereo not drawn) [Ibuprofen]
[2]; 50 mg/kg p.o. (lysine salt: 30 as active substance), 0 hrs, control 101.7 ± 3.19, 50 mg/kg
  Pain threshold - carrageenin oedema: 101.0 ± 2.85 g
[2]; 50 mg/kg p.o. (lysine salt: 30 as active substance), 3 hrs, control 52.7 ± 2.00, **p = 0.01, 50 mg/kg
  Pain threshold - carrageenin oedema: 85.7 ± 4.05 g
[2]; 50 mg/kg p.o. (lysine salt: 30 as active substance), 5 hrs, control 51.3 ± 2.15, **p = 0.01, 50 mg/kg
  Pain threshold - carrageenin oedema: 70.7 ± 3.45 g
[2]; 100 mg/kg p.o. (lysine salt: 60 as active substance), 0 hrs, control 101.7 ± 3.19, 100 mg/kg
  Pain threshold - carrageenin oedema: 105.3 ± 3.10 g
[2]; 100 mg/kg p.o. (lysine salt: 60 as active substance), 3 hrs, control 52.7 ± 2.00, **p = 0.01, 100 mg/kg
  Pain threshold - carrageenin oedema: 104.3 ± 3.51 g
[2]; 100 mg/kg p.o. (lysine salt: 60 as active substance), 5 hrs, control 51.3 ± 2.15, **p = 0.01, 100 mg/kg
  Pain threshold - carrageenin oedema: 80.3 ± 5.66 g
[2]; 200 mg/kg p.o. (lysine salt: 120 as active substance), 0 hrs, control 101.7 ± 3.19, 200 mg/kg
  Pain threshold - carrageenin oedema: 101.0 ± 3.21 g
[2]; 200 mg/kg p.o. (lysine salt: 120 as active substance), 3 hrs, control 52.7 ± 2.00, **p = 0.01, 200 mg/kg
  Pain threshold - carrageenin oedema: 119.7 ± 3.50 g
[2]; 200 mg/kg p.o. (lysine salt: 120 as active substance), 5 hrs, control 51.3 ± 2.15, **p = 0.01, 200 mg/kg
  Pain threshold - carrageenin oedema: 85.7 ± 4.70 g
